Results reported in the supplement of paper PMC7017272.
± gives the standard deviation of the averaged measurements.

Experiments:
UT-SCC-28 [1] = assay: relative IC50 (midpoint of the fitted curve; maximal inhibition may be below 50%); higher = less potent; details: culture condition: embedded in Matrigel; treatment time: 3 days
Outline: (§1)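 Viability of HPV-negative HNSCC cell lines was measured by CellTiter-Glo 2.0 luminescence. Cells were seeded at 500 cells/well in 384-well plates on plastic, on Matrigel- or Myogel-coated wells (500 µg/mL), or embedded in Matrigel or Myogel plus rat collagen I, then given compounds at five 10-fold concentrations for 3 days, with signals normalised to vehicle (0.1% DMSO) and cell-killing control wells. Fitting of percent-inhibition dose–response curves in the FIMM pipeline yielded IC50, maximal inhibition and drug sensitivity score.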

UT-SCC-81 [2] = assay: as above; details: culture condition: embedded in Myogel + collagen I; treatment time: 3 days
Outline: as §1

UT-SCC-24B [3] = assay: as above; details: treatment time: 3 days
Outline: as §1

UT-SCC-28 [4] = assay: maximal % inhibition of viability relative to DMSO; higher = stronger effect; details: treatment time: 3 days
Procedure: (§2)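 HNSCC cell lines (500 cells/well, 384-well) were cultured on plastic, on top of (2D) or embedded (3D) in Matrigel or human leiomyoma matrix Myogel (500 ug/mL; Myogel 3D mixed with rat collagen I). Cells were treated for 3 days with 5 ten-fold concentrations of each drug, and viability was read by CellTiter-Glo. Viability was normalised to DMSO and benzethonium chloride controls and fitted with the FIMM DSRT pipeline to give IC50 (nM), maximal % inhibition and DSS. Suffixes _1/_2/_3 are replicates. Only inhibition-mode (IC50) fits are kept.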

UT-SCC-81 [5] = assay: as above; details: treatment time: 3 days
Procedure: as §2

UT-SCC-44 = assay: as above; details: treatment time: 3 days
Procedure: as §2

UT-SCC-42A = assay: as above; details: treatment time: 3 days
Procedure: as §2

UT-SCC-14 = assay: as above; details: treatment time: 3 days
Procedure: as §2

UT-SCC-24B [6] = assay: as above; details: treatment time: 3 days
Procedure: as §2

UT-SCC-42B = assay: as above; details: treatment time: 3 days
Procedure: as §2

UT-SCC-40 = assay: as above; details: treatment time: 3 days
Procedure: as §2

UT-SCC-73 = assay: as above; details: treatment time: 3 days
Procedure: as §2

UT-SCC-8 = assay: as above; details: treatment time: 3 days
Procedure: as §2

UT-SCC-106A = assay: as above; details: treatment time: 3 days
Procedure: as §2

UT-SCC-24A = assay: drug sensitivity score (DSS); higher = more sensitive; details: treatment time: 3 days
Procedure: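 HNSCC cell lines (500 cells/well, 384-well) were cultured on plastic, on top of (2D) or embedded (3D) in Matrigel or human leiomyoma matrix Myogel (500 ug/mL; Myogel 3D mixed with rat collagen I). Cells were treated for 3 days with 5 ten-fold concentrations of each drug, and viability was read by CellTiter-Glo. Suffixes _1/_2/_3 on drug names are replicates.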

[7] = culture condition: embedded in Matrigel
[8] = culture condition: on top of Matrigel
[9] = culture condition: on top of Myogel
[10] = culture condition: plastic 2D (no matrix)
[11] = culture condition: embedded in Myogel + collagen I

For `C#Cc1cccc(Nc2ncnc3cc(OCCOC)c(OCCOC)cc23)c1` [Erlotinib], the “relative IC50” value (UT-SCC-28 [1]) was over 9.89 µM, the “relative IC50” value (UT-SCC-81 [2]) was over 9.89 µM and the “relative IC50” value (UT-SCC-24B [3]; [7]) was 0.522 µM. The “relative IC50” value (UT-SCC-24B [3]; [8]) was 0.591 µM, the “relative IC50” value (UT-SCC-24B [3]; [9]) was 2.49 µM and the “relative IC50” value (UT-SCC-24B [3]; [10]) was 0.227 µM. For the same compound, the “maximal % inhibition of viability” value (UT-SCC-28 [4]; [7]) was 11.3 ± 9.9%, the “maximal % inhibition of viability” value (UT-SCC-28 [4]; [11]) was 14 ± 5.9% and the “maximal % inhibition of viability” value (UT-SCC-28 [4]; [8]) was 12.2 ± 3.6%. For the same compound, the “maximal % inhibition of viability” value (UT-SCC-28 [4]; [10]) was 8.37 ± 7.3%, the “maximal % inhibition of viability” value (UT-SCC-81 [5]; [7]) was 77.1 ± 4.2% and the “maximal % inhibition of viability” value (UT-SCC-81 [5]; [11]) was 6.5 ± 5.1%. The “maximal % inhibition of viability” value (UT-SCC-81 [5]; [8]) was 62 ± 6.1%, the “maximal % inhibition of viability” value (UT-SCC-81 [5]; [9]) was 15.7 ± 4.9% and the “maximal % inhibition of viability” value (UT-SCC-81 [5]; [10]) was 12.4 ± 3.9%. The “maximal % inhibition of viability” value (UT-SCC-44; [7]) was 6.07 ± 5.3%, the “maximal % inhibition of viability” value (UT-SCC-44; [11]) was 10 ± 9.8% and the “maximal % inhibition of viability” value (UT-SCC-44; [8]) was 14.1 ± 8.5%. The “maximal % inhibition of viability” value (UT-SCC-44; [9]) was 20.4 ± 11%, the “maximal % inhibition of viability” value (UT-SCC-44; [10]) was 15.9 ± 13% and the “maximal % inhibition of viability” value (UT-SCC-42A; [7]) was 23.9 ± 23%. For the same compound, the “maximal % inhibition of viability” value (UT-SCC-42A; [11]) was 9.7 ± 4.9%, the “maximal % inhibition of viability” value (UT-SCC-42A; [8]) was 32.1 ± 18% and the “maximal % inhibition of viability” value (UT-SCC-42A; [9]) was 12.6 ± 2.3%. For the same compound, the “maximal % inhibition of viability” value (UT-SCC-42A; [10]) was 20.6 ± 17%, the “maximal % inhibition of viability” value (UT-SCC-14; [7]) was 29.5 ± 7.8% and the “maximal % inhibition of viability” value (UT-SCC-14; [11]) was 9.87 ± 4.7%. The “maximal % inhibition of viability” value (UT-SCC-14; [8]) was 9.6 ± 10%, the “maximal % inhibition of viability” value (UT-SCC-14; [9]) was 11.6 ± 10% and the “maximal % inhibition of viability” value (UT-SCC-14; [10]) was 8.77 ± 15%. For the same compound, the “maximal % inhibition of viability” value (UT-SCC-24B [6]; [7]) was 76.5 ± 0.95%, the “maximal % inhibition of viability” value (UT-SCC-24B [6]; [11]) was 67.5 ± 6.2% and the “maximal % inhibition of viability” value (UT-SCC-24B [6]; [8]) was 74.4 ± 3%. For the same compound, the “maximal % inhibition of viability” value (UT-SCC-24B [6]; [9]) was 59.3 ± 5%, the “maximal % inhibition of viability” value (UT-SCC-24B [6]; [10]) was 80.9 ± 1.6% and the “maximal % inhibition of viability” value (UT-SCC-42B; [7]) was 36.7 ± 12%. For the same compound, the “maximal % inhibition of viability” value (UT-SCC-42B; [8]) was 13.7 ± 13%, the “maximal % inhibition of viability” value (UT-SCC-42B; [9]) was 4.07 ± 4.7% and the “maximal % inhibition of viability” value (UT-SCC-42B; [10]) was 4.5 ± 0.98%. The “maximal % inhibition of viability” value (UT-SCC-40; [7]) was 18.6 ± 8.3%, the “maximal % inhibition of viability” value (UT-SCC-40; [11]) was 11.2 ± 9.4% and the “maximal % inhibition of viability” value (UT-SCC-40; [8]) was 7.93 ± 2.4%. The “maximal % inhibition of viability” value (UT-SCC-40; [9]) was 7.8 ± 4.5%, the “maximal % inhibition of viability” value (UT-SCC-40; [10]) was 9.97 ± 3.5% and the “maximal % inhibition of viability” value (UT-SCC-73; [7]) was 11.2 ± 8.1%. The “maximal % inhibition of viability” value (UT-SCC-73; [11]) was 13.6 ± 19%, the “maximal % inhibition of viability” value (UT-SCC-73; [8]) was 13.9 ± 3.5% and the “maximal % inhibition of viability” value (UT-SCC-73; [9]) was 9.4 ± 5.2%. For the same compound, the “maximal % inhibition of viability” value (UT-SCC-73; [10]) was 5.97 ± 2.2%, the “maximal % inhibition of viability” value (UT-SCC-8; [7]) was 67.3 ± 28% and the “maximal % inhibition of viability” value (UT-SCC-8; [11]) was 14.7 ± 22%. The “maximal % inhibition of viability” value (UT-SCC-8; [8]) was 55.5 ± 29%, the “maximal % inhibition of viability” value (UT-SCC-8; [9]) was 21.4 ± 0.72% and the “maximal % inhibition of viability” value (UT-SCC-8; [10]) was 40.5 ± 14%. The “maximal % inhibition of viability” value (UT-SCC-106A; [7]) was 25.1 ± 5.3%, the “maximal % inhibition of viability” value (UT-SCC-106A; [11]) was 10.4 ± 0.53% and the “maximal % inhibition of viability” value (UT-SCC-106A; [8]) was 23.6 ± 11%. For the same compound, the “maximal % inhibition of viability” value (UT-SCC-106A; [9]) was 2.57 ± 2.4%, the “maximal % inhibition of viability” value (UT-SCC-106A; [10]) was 19.6 ± 7.3% and the drug sensitivity score (UT-SCC-24A; [7]) was 8.87 ± 3.6 DSS. It also gave a drug sensitivity score (UT-SCC-24A; [11]) of 1.63 ± 1 DSS, a drug sensitivity score (UT-SCC-24A; [8]) of 5.7 ± 1.7 DSS and a drug sensitivity score (UT-SCC-24A; [9]) of 0 DSS. It also gave a drug sensitivity score (UT-SCC-24A; [10]) of 3.03 ± 0.93 DSS.
